# Assays:
# Type in all cases: in vivo
# Lolium rigidum [1] = assay: Herbicidal pre-emergence action; conditions: visual grading after ca. 3 weeks vs untreated controls
# Description: (§1) Seeds of mono- and dicotyledonous weed plants were sown in plastic pots (double sowings with one species of mono- and one species of dicotyledonous weed plants per pot), in sandy loam, and covered with soil. The compounds according to the invention, formulated in the form of wettable powders (WP) or as emulsifiable concentrates (EC), were applied to the surface of the covering soil as an aqueous suspension or as an emulsion, with the addition of 0.5% of an additive, at an application rate of 600 litres of water per hectare (converted). Following treatment, the pots were placed in a greenhouse and kept under optimum growth conditions for the test plants. The visual grading of the damage to the test plants is carried out after ca. 3 weeks in comparison to untreated controls (herbicidal effect in percent (%): 100% effect = plants have died, 0% effect = as control plants). Seeds of mono- and dicotyledonous weed plants were sown in plastic pots (double sowings with one species of mono- and one species of dicotyledonous weed plants per pot), in sandy loam, and covered with soil. The compounds according to the invention, formulated in the form of wettable powders (WP) or as emulsifiable concentrates (EC), were applied to the surface of the covering soil as an aqueous suspension or as an emulsion, with the addition of 0.5% of an additive, at an application rate of 600 litres of water per hectare (converted). Following treatment, the pots were placed in a greenhouse and kept under optimum growth conditions for the test plants. The visual grading of the damage to the test plants is carried out after ca. 3 weeks in comparison to untreated controls (herbicidal effect in percent (%): 100% effect = plants have died, 0% effect = as control plants).
# Poa annua [2] = assay: Herbicidal pre-emergence action; conditions: visual grading after ca. 3 weeks vs untreated controls
# Description: as §1
# Abutilon theophrasti [3] = assay: Herbicidal post-emergence action; conditions: 1280 g/ha, visual assessment after ca. 3 weeks vs untreated controls
# Description: (§2) Seeds of mono- and dicotyledonous weed plants were sown in plastic pots (double sowings with one species of mono- and one species of dicotyledonous weed plants per pot), in sandy loam, covered with soil and grown under controlled growth conditions. 2 to 3 weeks after sowing, the test plants were sprayed in the single-leaf stage. The compounds according to the invention, formulated in the form of wettable powders (WP) or as emulsifiable concentrates (EC), were sprayed onto the green plant parts as an aqueous suspension or as an emulsion, with the addition of 0.5% of an additive, at an application rate of 600 litres of water per hectare (converted). The test plants were placed in the greenhouse for ca. 3 weeks under optimum growth conditions, and then the effect of the preparations is assessed visually in comparison with untreated controls (herbicidal effect in percent (%): 100% effect = plants have died, 0% effect = as control plants).
# as §2, with “(EC), are” for “(EC), were”, “controls (herbicidaleffectinpercent(%):100%effect=plantshavedied,0%effect=ascontrolplants). [formula]” for “controls (herbicidal effect in percent (%): 100% effect = plants have died, 0% effect = as control plants).”
# Amaranthus retroflexus [4] = assay: Herbicidal post-emergence action; conditions: visual assessment after ca. 3 weeks vs untreated controls
# Description: as §2
# as §2, with “(EC), are” for “(EC), were”, “controls (herbicidaleffectinpercent(%):100%effect=plantshavedied,0%effect=ascontrolplants). [formula]” for “controls (herbicidal effect in percent (%): 100% effect = plants have died, 0% effect = as control plants).”
# Kochia scoparia [5] = assay: Herbicidal post-emergence action; conditions: visual assessment after ca. 3 weeks vs untreated controls
# Description: as §2
# as §2, with “(EC), are” for “(EC), were”, “controls (herbicidaleffectinpercent(%):100%effect=plantshavedied,0%effect=ascontrolplants). [formula]” for “controls (herbicidal effect in percent (%): 100% effect = plants have died, 0% effect = as control plants).”
# Matricaria inodora [6] = assay: Herbicidal post-emergence action; conditions: visual assessment after ca. 3 weeks vs untreated controls
# Description: as §2
# as §2, with “(EC), are” for “(EC), were”, “controls (herbicidaleffectinpercent(%):100%effect=plantshavedied,0%effect=ascontrolplants). [formula]” for “controls (herbicidal effect in percent (%): 100% effect = plants have died, 0% effect = as control plants).”
# Poa annua [7] = assay: Herbicidal post-emergence action; conditions: visual assessment after ca. 3 weeks vs untreated controls
# Description: as §2
# as §2, with “(EC), are” for “(EC), were”, “controls (herbicidaleffectinpercent(%):100%effect=plantshavedied,0%effect=ascontrolplants). [formula]” for “controls (herbicidal effect in percent (%): 100% effect = plants have died, 0% effect = as control plants).”
# Setaria viridis [8] = assay: Herbicidal post-emergence action; conditions: visual assessment after ca. 3 weeks vs untreated controls
# Description: as §2
# as §2, with “(EC), are” for “(EC), were”, “controls (herbicidaleffectinpercent(%):100%effect=plantshavedied,0%effect=ascontrolplants). [formula]” for “controls (herbicidal effect in percent (%): 100% effect = plants have died, 0% effect = as control plants).”
# Stellaria media [9] = assay: Herbicidal post-emergence action; conditions: visual assessment after ca. 3 weeks vs untreated controls
# Description: as §2
# as §2, with “(EC), are” for “(EC), were”, “controls (herbicidaleffectinpercent(%):100%effect=plantshavedied,0%effect=ascontrolplants). [formula]” for “controls (herbicidal effect in percent (%): 100% effect = plants have died, 0% effect = as control plants).”
# Veronica persica [10] = assay: Herbicidal post-emergence action; conditions: visual assessment after ca. 3 weeks vs untreated controls
# Description: as §2
# as §2, with “(EC), are” for “(EC), were”, “controls (herbicidaleffectinpercent(%):100%effect=plantshavedied,0%effect=ascontrolplants). [formula]” for “controls (herbicidal effect in percent (%): 100% effect = plants have died, 0% effect = as control plants).”
# Amaranthus retroflexus [11] = assay: Herbicidal pre-emergence action; conditions: 1280 g/ha, visual grading after ca. 3 weeks vs untreated controls
# Description: as §1
# Digitaria sanguinalis [12] = assay: Herbicidal pre-emergence action; conditions: 1280 g/ha, visual grading after ca. 3 weeks vs untreated controls
# Description: as §1
# Kochia scoparia [13] = assay: Herbicidal pre-emergence action; conditions: 1280 g/ha, visual grading after ca. 3 weeks vs untreated controls
# Description: as §1
# Matricaria inodora [14] = assay: Herbicidal pre-emergence action; conditions: 1280 g/ha, visual grading after ca. 3 weeks vs untreated controls
# Description: as §1
# Setaria viridis [15] = assay: Herbicidal pre-emergence action; conditions: 1280 g/ha, visual grading after ca. 3 weeks vs untreated controls
# Description: as §1
# Stellaria media [16] = assay: Herbicidal pre-emergence action; conditions: visual grading after ca. 3 weeks vs untreated controls
# Description: as §1
# Veronica persica [17] = assay: Herbicidal pre-emergence action; conditions: 1280 g/ha, visual grading after ca. 3 weeks vs untreated controls
# Description: as §1
# Alopecurus myosuroides [18] = assay: Herbicidal post-emergence action; conditions: 1280 g/ha, visual assessment after ca. 3 weeks vs untreated controls
# Description: as §2
# as §2, with “(EC), are” for “(EC), were”, “controls (herbicidaleffectinpercent(%):100%effect=plantshavedied,0%effect=ascontrolplants). [formula]” for “controls (herbicidal effect in percent (%): 100% effect = plants have died, 0% effect = as control plants).”
# Digitaria sanguinalis [19] = assay: Herbicidal post-emergence action; conditions: visual assessment after ca. 3 weeks vs untreated controls
# Description: as §2
# as §2, with “(EC), are” for “(EC), were”, “controls (herbicidaleffectinpercent(%):100%effect=plantshavedied,0%effect=ascontrolplants). [formula]” for “controls (herbicidal effect in percent (%): 100% effect = plants have died, 0% effect = as control plants).”
# Lolium rigidum [20] = assay: Herbicidal post-emergence action; conditions: visual assessment after ca. 3 weeks vs untreated controls
# Description: as §2
# as §2, with “(EC), are” for “(EC), were”, “controls (herbicidaleffectinpercent(%):100%effect=plantshavedied,0%effect=ascontrolplants). [formula]” for “controls (herbicidal effect in percent (%): 100% effect = plants have died, 0% effect = as control plants).”
# Alopecurus myosuroides [21] = assay: Herbicidal pre-emergence action; conditions: 1280 g/ha, visual grading after ca. 3 weeks vs untreated controls
# Description: as §1
# Abutilon theophrasti [22] = assay: Herbicidal pre-emergence action; conditions: 1280 g/ha, visual grading after ca. 3 weeks vs untreated controls
# Description: as §1
# Echinochloa crus-galli = assay: Herbicidal pre-emergence action; conditions: 1280 g/ha, visual grading after ca. 3 weeks vs untreated controls
# Description: as §1
Compound,"herbicidal effect in percent (%), LOLRI (Lolium rigidum [1]; 1280 g/ha)","herbicidal effect in percent (%), POAAN (Poa annua [2]; 1280 g/ha)","herbicidal effect in percent (%), ABUTH (Abutilon theophrasti [3])","herbicidal effect in percent (%), AMARE (Amaranthus retroflexus [4]; 1280 g/ha)","herbicidal effect in percent (%), KCHSC (Kochia scoparia [5]; 1280 g/ha)","herbicidal effect in percent (%), MATIN (Matricaria inodora [6]; 1280 g/ha)","herbicidal effect in percent (%), POAAN (Poa annua [7]; 1280 g/ha)","herbicidal effect in percent (%), SETVI (Setaria viridis [8]; 1280 g/ha)","herbicidal effect in percent (%), STEME (Stellaria media [9]; 1280 g/ha)","herbicidal effect in percent (%), VERPE (Veronica persica [10]; 1280 g/ha)","herbicidal effect in percent (%), AMARE (Amaranthus retroflexus [11])","herbicidal effect in percent (%), MATIN (Matricaria inodora [14])","herbicidal effect in percent (%), POAAN (Poa annua [2]; 320 g/ha)","herbicidal effect in percent (%), STEME (Stellaria media [16]; 1280 g/ha)","herbicidal effect in percent (%), VERPE (Veronica persica [17])","herbicidal effect in percent (%), ALOMY (Alopecurus myosuroides [18])","herbicidal effect in percent (%), LOLRI (Lolium rigidum [20]; 1280 g/ha)","herbicidal effect in percent (%), STEME (Stellaria media [9]; 320 g/ha)","herbicidal effect in percent (%), VERPE (Veronica persica [10]; 320 g/ha)","herbicidal effect in percent (%), MATIN (Matricaria inodora [6]; 320 g/ha)",further results
"O=C(Nc1ncns1)c1cc(Cl)ncc1OC(F)(F)F [Example 1-012, 2-chloro-N-(1,2,4-thiadiazol-5-yl)-5-(trifluoromethoxy)pyridine-4-carboxamide]",100%,90%,90%,100%,90%,100%,90%,90%,100%,100%,,,,,,,,,,,
O=C(Nc1ncns1)c1ccncc1I [Example 1-004],100%,90%,,100%,90%,100%,100%,90%,100%,100%,90%,90%,90%,90%,90%,100%,100%,100%,100%,,"herbicidal effect in percent (%), DIGSA (Digitaria sanguinalis [12]): 90%; herbicidal effect in percent (%), KCHSC (Kochia scoparia [13]): 90%; herbicidal effect in percent (%), SETVI (Setaria viridis [15]): 90%; herbicidal effect in percent (%), STEME (Stellaria media [16]; 320 g/ha): 90%; herbicidal effect in percent (%), DIGSA (Digitaria sanguinalis [19]; 320 g/ha): 90%; herbicidal effect in percent (%), DIGSA (Digitaria sanguinalis [19]; 1280 g/ha): 100%; herbicidal effect in percent (%), POAAN (Poa annua [7]; 320 g/ha): 100%; herbicidal effect in percent (%), SETVI (Setaria viridis [8]; 320 g/ha): 90%"
O=C(Nc1ncns1)c1c(Br)cncc1Br [Example I-015],90%,100%,100%,90%,100%,100%,100%,,100%,100%,,100%,100%,90%,100%,100%,100%,100%,100%,100%,"herbicidal effect in percent (%), ALOMY (Alopecurus myosuroides [21]): 100%; herbicidal effect in percent (%), DIGSA (Digitaria sanguinalis [12]): 100%; herbicidal effect in percent (%), DIGSA (Digitaria sanguinalis [19]; 1280 g/ha): 100%; herbicidal effect in percent (%), POAAN (Poa annua [7]; 320 g/ha): 100%"
"O=C(Nc1nc(Cl)ns1)c1ccncc1I [Example 1-023, N-(3-chloro-1,2,4-thiadiazol-5-yl)-3-iodo-pyridine-4-carboxamide]",90%,,,90%,90%,100%,90%,,90%,,100%,100%,,100%,,,,,,,
"O=C(Nc1ncns1)c1cc(Cl)ncc1C(F)(F)F [Example I-013, 2-chloro-N-(1,2,4-thiadiazol-5-yl)-5-(trifluoromethyl)pyridine-4-carboxamide]",100%,90%,,100%,100%,100%,100%,,100%,100%,100%,100%,,100%,100%,90%,100%,100%,100%,100%,"herbicidal effect in percent (%), ABUTH (Abutilon theophrasti [22]): 90%; herbicidal effect in percent (%), ALOMY (Alopecurus myosuroides [21]): 90%; herbicidal effect in percent (%), ECHCG (Echinochloa crus-galli): 100%; herbicidal effect in percent (%), KCHSC (Kochia scoparia [13]): 100%; herbicidal effect in percent (%), LOLRI (Lolium rigidum [1]; 320 g/ha): 90%; herbicidal effect in percent (%), KCHSC (Kochia scoparia [5]; 320 g/ha): 100%; herbicidal effect in percent (%), LOLRI (Lolium rigidum [20]; 320 g/ha): 90%; herbicidal effect in percent (%), POAAN (Poa annua [7]; 320 g/ha): 100%"
O=C(Nc1ncns1)c1cc(Cl)ncc1Cl [Example I-011],90%,100%,90%,100%,100%,100%,90%,,100%,100%,90%,100%,,90%,,100%,90%,90%,90%,100%,"herbicidal effect in percent (%), ALOMY (Alopecurus myosuroides [21]): 90%; herbicidal effect in percent (%), AMARE (Amaranthus retroflexus [4]; 320 g/ha): 90%; herbicidal effect in percent (%), DIGSA (Digitaria sanguinalis [19]; 320 g/ha): 90%; herbicidal effect in percent (%), DIGSA (Digitaria sanguinalis [19]; 1280 g/ha): 100%; herbicidal effect in percent (%), KCHSC (Kochia scoparia [5]; 320 g/ha): 90%"
"O=C(Nc1ncns1)c1cc(F)ncc1Br [Example I-027, 5-bromo-2-fluoro-N-(1,2,4-thiadiazol-5-yl)pyridine-4-carboxamide]",100%,90%,,90%,90%,90%,90%,90%,90%,90%,,90%,90%,100%,,90%,,,,90%,"herbicidal effect in percent (%), LOLRI (Lolium rigidum [1]; 320 g/ha): 90%"

# From patent EP4238973A1, “SUBSTITUTED 1,2,4-THIADIAZOLYL ISONICOTINAMIDES, SALTS OR N-OXIDES THEREOF AND THEIR USE AS HERBICIDALLY ACTIVE SUBSTANCES” (Bayer AG, priority 2022, dated 2023)
